From US10766884B2 (Pfizer Inc., priority 2018, dated 2020)

Experiments:
CDK4/Cyclin D1 = CDK4/Cyclin D1 (Homo sapiens (Human), UniProt P11802); assay: CDK4/Cyclin D1 mobility shift assay; format: biochemical; conditions: activated CDK4/Cyclin D1, 3.5 mM ATP, Morrison fit; read-out: CDK4D1 Ki
CDK6/Cyclin D3 = CDK6/Cyclin D3 (Homo sapiens (Human), UniProt Q00534); assay: CDK6/Cyclin D3 mobility shift assay; format: biochemical; conditions: activated CDK6/Cyclin D3, 3.5 mM ATP, Morrison fit; read-out: CDK6_D3 Ki
Chain of CDK6/Cyclin D3 (Q00534 whole entry): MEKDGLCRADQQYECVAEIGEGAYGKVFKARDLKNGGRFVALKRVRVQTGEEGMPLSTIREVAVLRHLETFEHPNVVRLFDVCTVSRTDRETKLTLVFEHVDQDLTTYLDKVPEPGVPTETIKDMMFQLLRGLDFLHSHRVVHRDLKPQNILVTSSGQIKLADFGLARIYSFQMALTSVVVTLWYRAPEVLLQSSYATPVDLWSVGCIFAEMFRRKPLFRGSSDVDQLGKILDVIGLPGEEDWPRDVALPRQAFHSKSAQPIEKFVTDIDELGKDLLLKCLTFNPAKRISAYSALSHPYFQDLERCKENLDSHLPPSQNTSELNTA
Chain of CDK6/Cyclin D3 (P30281 whole entry partner): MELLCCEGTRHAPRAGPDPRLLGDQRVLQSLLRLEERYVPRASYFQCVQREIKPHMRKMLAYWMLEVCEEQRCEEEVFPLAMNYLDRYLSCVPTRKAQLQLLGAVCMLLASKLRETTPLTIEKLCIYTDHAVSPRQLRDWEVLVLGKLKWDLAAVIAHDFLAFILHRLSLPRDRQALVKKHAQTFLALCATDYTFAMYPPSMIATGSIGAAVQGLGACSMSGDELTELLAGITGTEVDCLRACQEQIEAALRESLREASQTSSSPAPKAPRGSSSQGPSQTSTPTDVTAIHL

CDK4 = CDK4 (Homo sapiens (Human), UniProt P11802); assay: Phospho-Serine 795 Rb ELISA assay in JEKO-1 cells; format: cell-based; conditions: overnight treatment, phospho-Rb S795, read-out: CDK4 pRB S795 ELISA JEKO-1 cells IC50
Chain of CDK4 (P11802 2-303): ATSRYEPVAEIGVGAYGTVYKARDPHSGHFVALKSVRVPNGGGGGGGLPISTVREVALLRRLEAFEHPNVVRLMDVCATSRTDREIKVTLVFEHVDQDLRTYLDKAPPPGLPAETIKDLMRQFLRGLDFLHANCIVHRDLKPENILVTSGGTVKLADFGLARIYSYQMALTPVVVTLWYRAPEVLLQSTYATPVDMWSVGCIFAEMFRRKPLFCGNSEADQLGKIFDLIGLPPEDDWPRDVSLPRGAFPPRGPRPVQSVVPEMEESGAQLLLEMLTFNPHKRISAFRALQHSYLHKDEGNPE
Chain of CDK4 (P24385 whole entry partner): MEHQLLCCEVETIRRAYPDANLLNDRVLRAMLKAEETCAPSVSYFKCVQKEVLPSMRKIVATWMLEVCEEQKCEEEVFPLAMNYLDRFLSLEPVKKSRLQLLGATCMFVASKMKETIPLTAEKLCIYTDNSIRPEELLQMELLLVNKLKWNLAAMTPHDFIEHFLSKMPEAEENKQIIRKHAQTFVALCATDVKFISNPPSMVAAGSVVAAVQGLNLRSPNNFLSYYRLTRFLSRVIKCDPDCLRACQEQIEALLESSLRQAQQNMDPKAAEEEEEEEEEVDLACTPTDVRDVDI
Experimental: (§1) JEKO-1 or MV4-11 cells were seeded at 15,000 or 20,000 cells per well, respectively, in 100 μL growth media and allowed to incubate at 37° C. with 5% CO2 overnight. The following day, compounds were serially diluted from a 10 mM top dose for an 11-point 3-fold dilution curve in DMSO. Compounds were intermediately diluted 1:200 into growth media prior to diluting 1:5 on cells for final concentration 10 μM to 0.1 nM in 0.1% DMSO on cells. JEKO-1 and MV4-11 cells were treated were treated overnight, at 37° C. with 5% CO2. Cells were lysed in 100 μL/well CST lysis buffer on ice and transferred to pre-coated and blocked anti-phospho-Ser795 Rb ELISA plates for overnight incubation at 4° C. Plates were washed to remove residual, unbound cellular proteins and total Rb detection antibody added for 90 minutes at 37° C. Following wash to remove unbound total Rb antibody, the HRP tagged antibody was allowed to bind for 30 minutes at 37° C. Following wash to remove unbound HRP antibody, Glo Substrate Reagent was added and incubated protected from light for 5 to 10 minutes. Plates were read in luminescence mode and IC50 values calculated.

CDK6 = CDK6 (Homo sapiens (Human), UniProt Q00534); assay: Phospho-Serine 795 Rb ELISA assay in MV4-11 cells; format: cell-based; conditions: overnight treatment, phospho-Rb S795, read-out: CDK6 pRB S795 ELISA MV4-11 cells IC50
Chain of CDK6 (Q00534 whole entry): as the sequence (Q00534 whole entry) above
Chain of CDK6 (P30281 whole entry partner): as the sequence (P30281 whole entry partner) above
Experimental: as §1

Chain of CDK4/Cyclin D1 (P11802 whole entry): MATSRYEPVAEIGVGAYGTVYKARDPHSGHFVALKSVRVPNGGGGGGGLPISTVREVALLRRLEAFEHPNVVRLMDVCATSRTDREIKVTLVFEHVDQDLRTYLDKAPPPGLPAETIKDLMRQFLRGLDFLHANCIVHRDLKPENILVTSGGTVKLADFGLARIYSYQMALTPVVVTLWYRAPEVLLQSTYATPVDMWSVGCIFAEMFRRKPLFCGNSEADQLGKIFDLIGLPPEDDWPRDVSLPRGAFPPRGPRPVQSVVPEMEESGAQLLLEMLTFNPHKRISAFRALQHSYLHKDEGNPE
Chain of CDK4/Cyclin D1 (P24385 whole entry partner): as the sequence (P24385 whole entry partner) above

SMILES	Ki (CDK4/Cyclin D1) [nM]	Ki (CDK6/Cyclin D3) [nM]	IC50 (CDK4) [nM]	IC50 (CDK6) [nM]
C[C@H](O)c1nc2c(F)cc(-c3nc(N[C@@H]4CCOC[C@H]4O)ncc3Cl)cc2n1C(C)(C)C [Example A61, 1,5-anhydro-3-[(4-{1-tert-butyl-4-fluoro-2-[(1S)-1-hydroxyethyl]-1H-benzimidazol-6-yl}-5-chloropyrimidin-2-yl)amino]-2,3-dideoxy-D-threo-pentitol]	0.2	2.6	11.4	33.5
C[C@@H](O)c1nc2c(F)cc(-c3nc(N[C@@H]4CCN(S(C)(=O)=O)C[C@H]4O)ncc3Cl)cc2n1C(C)(C)C [Example A62, (3R,4R)-4-[(4-{1-tert-butyl-4-fluoro-2-[(1R)-1-hydroxyethyl]-1H-benzimidazol-6-yl}-5-chloropyrimidin-2-yl)amino]-1-(methanesulfonyl)piperidin-3-ol]	0.5	8	27.5	66.6
CC(C)n1c(C(C)(C)O)nc2c(F)cc(-c3nc(N[C@@H]4CCOC[C@H]4O)ncc3F)cc21 [Example A68, 1,5-anhydro-2,3-dideoxy-3-({5-fluoro-4-[4-fluoro-2-(2-hydroxpropan-2-yl)-1-(propan-2-yl)-1H-benzimidazol-6-yl]pyrimidin-2-yl}amino)-D-threo-pentitol]	0.7	14.3	48.7	235
CC(C)n1c(C(F)F)nc2c(F)cc(-c3nc(N[C@@H]4CCN(S(C)(=O)=O)C[C@H]4O)ncc3Cl)cc21 [Example A69, (3R,4R)-4-({5-chloro-4-[2-(difluoromethyl)-4-fluoro-1-(propan-2-yl)-1H-benzimidazol-6-yl]pyrimidin-2-yl}amino)-1-(methanesulfonyl)piperidin-3-ol]	0.7	4.9	101	238
CCc1nc2c(F)cc(-c3nc(N[C@@H]4CCN(S(C)(=O)=O)C[C@H]4O)ncc3Cl)cc2n1C1COC1 [Example A71, (3R,4R)-4-({5-chloro-4-[2-ethyl-4-fluoro-1-(oxetan-3-yl)-1H-benzimidazol-6-yl]pyrimidin-2-yl}amino)-1-(methanesulfonyl)piperidin-3-ol]	0.8	11.4	94.9	287
COCc1nc2c(F)cc(-c3nc(N[C@@H]4CCN(S(C)(=O)=O)C[C@H]4O)ncc3Cl)cc2n1C(C)C [Example A75, (3R,4R)-4-({5-chloro-4-[4-fluoro-2-(methoxymethyl)-1-(propan-2-yl)-1H-benzimidazol-6-yl]pyrimidin-2-yl}amino)-1-(methanesulfonyl)piperidin-3-ol]	0.3	5	33.2	103
CC(C)(C)n1cnc2ccc(-c3nc(N[C@@H]4CCN(S(C)(=O)=O)C[C@H]4O)ncc3F)cc21 [Example A77, (3R,4R)-4-{[4-(1-tert-butyl-1H-benzimidazol-6-yl)-5-fluoropyrimidin-2-yl]amino}-1-(methanesulfonyl)piperidin-3-ol]	0.3	4.9	61.1	126
Cc1nc2ccc(-c3nc(N[C@@H]4CCN(S(C)(=O)=O)C[C@H]4O)ncc3F)cc2n1C(C)(C)C [Example A78, (3R,4R)-4-{[4-(1-tert-butyl-2-methyl-1H-benzimidazol-6-yl)-5-fluoropyrimidin-2-yl]amino}-1-(methanesulfonyl)piperidin-3-ol]	0.1	1.8	26.4	73.9
Cc1cc(-c2nc(N[C@@H]3CCN(S(C)(=O)=O)C[C@H]3O)ncc2F)cc2c1nc(C)n2C(C)C [Example A79, (3R,4R)-4-({4-[2,4-dimethyl-1-(propan-2-yl)-1H-benzimidazol-6-yl]-5-fluoropyrimidin-2-yl}amino)-1-(methanesulfonyl)piperidin-3-ol]	1.8	17.6	598	1140
CC1(C)OCCn2nc3c(F)cc(-c4nc(N[C@@H]5CCOC[C@H]5O)ncc4F)cc3c21 [Example A80, 1,5-anhydro-2,3-dideoxy-3-{[5-fluoro-4-(7-fluoro-1,1-dimethyl-3,4-dihydro-1H-[1,4]oxazino[4,3-b]indazol-9-yl)pyrimidin-2-yl]amino}-D-threo-pentitol]	0.5	14.7	72.9	217
Cc1cnc(N[C@@H]2CCN(S(C)(=O)=O)C[C@H]2O)nc1-c1cc(F)c2nc(C)n(C(C)C)c2c1 [Example A83, (3R,4R)-4-({4-[4-fluoro-2-methyl-1-(propan-2-yl)-1H-benzimidazol-6-yl]-5-methylpyrimidin-2-yl}amino)-1-(methanesulfonyl)piperidin-3-ol]	4.1	88.5	395	1220
CC(C)n1c(CO)nc2c(F)cc(-c3nc(N[C@@H]4CCN(S(C)(=O)=O)C[C@H]4O)ncc3Cl)cc21 [Example A87, (3R,4R)-4-({5-chloro-4-[4-fluoro-2-(hydroxymethyl)-1-(propan-2-yl)-1H-benzimidazol-6-yl]pyrimidin-2-yl}amino)-1-(methanesulfonyl)piperidin-3-ol]	0.2	2.8	40.1	97.7
Cc1nc2c(F)cc(-c3nc(N[C@@H]4CCN(S(C)(=O)=O)C[C@H]4O)ncc3F)cc2n1C1CNC1 [Example A88, (3R,4R)-4-({4-[1-(azetidin-3-yl)-4-fluoro-2-methyl-1H-benzimidazol-6-yl]-5-fluoropyrimidin-2-yl}amino)-1-(methanesulfonyl)piperidin-3-ol]	4.5	80.4	7320	10000
Cc1nc2c(F)cc(-c3nc(N[C@@H]4CCN(S(C)(=O)=O)C[C@H]4O)ncc3Cl)cc2n1C1COC1 [Example A89, (3R,4R)-4-({5-chloro-4-[4-fluoro-2-methyl-1-(oxetan-3-yl)-1H-benzimidazol-6-yl]pyrimidin-2-yl}amino)-1-(methanesulfonyl)piperidin-3-ol]	0.5	12	118	570
CC(C)n1c(C(C)(C)O)nc2c(F)cc(-c3nc(N[C@@H]4CCN(S(C)(=O)=O)C[C@H]4O)ncc3Cl)cc21 [Example A91, (3R,4R)-4-({5-chloro-4-[4-fluoro-2-(2-hydroxypropan-2-yl)-1-(propan-2-yl)-1H-benzimidazol-6-yl]pyrimidin-2-yl}amino)-1-(methanesulfonyl)piperidin-3-ol]	0.1	1.7	14.9	25.7
CC(C(F)F)n1c(CO)nc2c(F)cc(-c3nc(N[C@@H]4CCN(S(C)(=O)=O)C[C@H]4O)ncc3Cl)cc21 (stereo partly drawn) [Example A92, (3R,4R)-4-({5-chloro-4-[1-(1,1-difluoropropan-2-yl)-4-fluoro-2-(hydroxymethyl)-1H-benzimidazol-6-yl]pyrimidin-2-yl}amino)-1-(methanesulfonyl)piperidin-3-ol]	0.1	0.9	23.8	42.9
CC(C)n1c(C(C)(C)O)nc2c(F)cc(-c3nc(N[C@@H]4CCOC[C@H]4O)ncc3Cl)cc21 [Example A94, 1,5-anhydro-3-({5-chloro-4-[4-fluoro-2-(2-hydroxypropan-2-yl)-1-(propan-2-yl)-1H-benzimidazol-6-yl]pyrimidin-2-yl}amino)-2,3-dideoxy-D-threo-pentitol]	0.6	13.9	38.5	145
